According to the NIST ThermoML archive (doi:10.1021/acs.jced.5b00594):
Numbers after ± are expanded uncertainties.

Experiment: wn = mass fraction of the nth substance listed
Conditions: 313.15 K, 100 kPa, Liquid, Pycnometric method

| mass density (w1 = 0.4722) | mass density (w2 = 0.6151) | Structure (SMILES) |
| --- | --- | --- |
| 1391 ± 4 kg/m3 |  | O=S(=O)([O-])O.[K+] [hydrogen potassium sulfate] + O |
|  | 1832 ± 6 kg/m3 | O=S(=O)([O-])O.[K+] [hydrogen potassium sulfate] + O=S(=O)(O)O |
